From patent publication US20230089368A1, “POLYAROMATIC UREA DERIVATIVES AND THEIR USE IN THE TREATMENT OF MUSCLE DISEASES” (ANAGENESIS BIOTECHNOLOGIES S.A.S., priority 2019, published 2023)

What was measured:
[1] = test system: satellite-like cells (Pax7-positive cells) in hMP; experiment: Myotube assay: Pax7-positive (satellite-like) cell quantification; format: cell-based, human; parameters: key to Pax7% (pool of Pax7-positive cells) / Pax7: −: Depletes the pool of cells, while positively affects the myotubes; +: Maintains or increases the pool of cells, with at least 1 of the highest concentration known to be cytotoxic; ++: Maintains or increases the pool of cells, without any toxicity; settings: for Pax7% (pool of Pax7-positive cells): myotube assay, compounds incubated 3 days
How it was run: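 DMD hiPSC-derived muscle progenitors (hMP) proliferated 4 days, then plated on collagen I in K5 medium with 5 μM Y-27632. Compound added at 1.5 nM–30 μM for 3 days at 37° C, then cells fixed and immunostained. Pax7-positive cells counted as percentage of total nuclei, duplicates averaged.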

[2] = test system: muscle progenitors (hMP) from DMD hiPSC or WT hiPSC; experiment: Myotube assay: myogenic activity (total myotube area per well); format: cell-based, human; settings: for Emax: Homo sapiens, 72 h, myotube assay, compounds incubated 3 days, read-out: MA (normalized Myotube Area, efficacy)
How it was run: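 DMD or WT hiPSC-derived muscle progenitors plated on collagen I in K5 medium with 5 μM Y-27632, treated with compound (1.5 nM–30 μM) for 3 days at 37° C. Cells were fixed, stained for alpha-actinin and imaged for total myotube area per well. EC50 and normalized myotube area (MA) taken from duplicate-averaged data.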

SMILES	Pax7% (pool of Pax7-positive cells) [1]	Emax [2] [%]	percentage of Pax7-positive cells ([1]; DMD hMP, 10 concentrations 1.5 nM to 30 μM, 3 days, FIG. 3)	total myotube surface/well (myogenic activity) ([2]; DMD hMP, 10 concentrations 1.5 nM to 30 μM, 3 days, FIG. 2)
CC(C)(C)c1cnc(NC(=O)Nc2ccc(Oc3ccnc4c3CCC(=O)N4)c3ccccc23)s1 [(cu), 1-(5-(tert-butyl)thiazol-2-yl)-3-(4-((7-oxo-5,6,7,8-tetrahydro-1,8-naphthyridin-4-yl)oxy)naphthalen-1-yl)urea]	++	≥ 75		
CSc1cc(Oc2ccnc3[nH]c(=O)cnc23)ccc1NC(=O)Nc1nnc(C(C)(C)C)s1 [(z), 1-(5-(tert-butyl)-1,3,4-thiadiazol-2-yl)-3-(2-(methylthio)-4-((3-oxo-3,4-dihydropyrido[2,3-b]pyrazin-8-yl)oxy)phenyl)urea]	++	≥ 75		
CSc1cc(Oc2ccnc3c2CCC(=O)N3)ccc1NC(=O)Nc1cncc(C(F)(F)F)c1 [(cg), 1-(2-(methylthio)-4-((7-oxo-5,6,7,8-tetrahydro-1,8-naphthyridin-4-yl)oxy)phenyl)-3-(5-(trifluoromethyl)pyridin-3-yl)urea]	−	≥ 75		
CC(C)(C)c1cc(NC(=O)Nc2ccc(Oc3ccnc4[nH]c(=O)cnc34)cc2F)n(-c2cccnc2)n1 [(l), 1-(3-(tert-butyl)-1-(pyridin-3-yl)-1H-pyrazol-5-yl)-3-(2-fluoro-4-((3-oxo-3,4-dihydropyrido[2,3-b]pyrazin-8-yl)oxy)phenyl)urea]	+	50 to 75		
CC(C)(C)c1cc(NC(=O)Nc2ccc(Oc3ccnc4[nH]c(=O)cnc34)cc2Cl)n(-c2ccccc2)n1 [(ak), 1-(3-(tert-butyl)-1-phenyl-1H-pyrazol-5-yl)-3-(2-chloro-4-((3-oxo-3,4-dihydropyrido[2,3-b]pyrazin-8-yl)oxy)phenyl)urea]	+	≥ 75		
CSc1cc(Oc2ccnc(NC(=O)CO)c2)ccc1NC(=O)Nc1cc(C(C)(C)C)nn1-c1ccccc1 [(dq), N-(4-(4-(3-(3-(tert-butyl)-1-phenyl-1H-pyrazol-5-yl)ureido)-3-(methylthio)phenoxy)pyridin-2-yl)-2-hydroxyacetamide]	+	≥ 75		
CSc1cc(Oc2ccnc3[nH]c(=O)cnc23)ccc1NC(=O)Nc1cc(C(C)(C)C)nn1-c1ccc(C)nc1 [(bd), 1-(3-(tert-butyl)-1-(6-methylpyridin-3-yl)-1H-pyrazol-5-yl)-3-(2-(methylthio)-4-((3-oxo-3,4-dihydropyrido[2,3-b]pyrazin-8-yl)oxy)phenyl)urea]	+	≥ 75		
CSc1cc(Oc2ccnc3[nH]c(=O)cnc23)ccc1NC(=O)Nc1cc(C(C)(C)C)nn1-c1ccc(F)c(Cl)c1 [(cm), 1-(3-(tert-butyl)-1-(3-chloro-4-fluorophenyl)-1H-pyrazol-5-yl)-3-(2-(methylthio)-4-((3-oxo-3,4-dihydropyrido[2,3-b]pyrazin-8-yl)oxy)phenyl)urea]	+	≥ 75		
CC(C)(C)c1cc(NC(=O)Nc2ccc(Oc3ccnc4[nH]c(=O)cnc34)cc2F)n(Cc2ccccc2)n1 [(j), 1-(1-benzyl-3-(tert-butyl)-1H-pyrazol-5-yl)-3-(2-fluoro-4-((3-oxo-3,4-dihydropyrido[2,3-b]pyrazin-8-yl)oxy)phenyl)urea]	++	50 to 75		
CSc1cc(Oc2ccnc3[nH]c(=O)cnc23)ccc1NC(=O)Nc1cc(C(C)(C)C)nn1-c1ccc(C)c(Cl)c1 [(cl), 1-(3-(tert-butyl)-1-(3-chloro-4-methylphenyl)-1H-pyrazol-5-yl)-3-(2-(methylthio)-4-((3-oxo-3,4-dihydropyrido[2,3-b]pyrazin-8-yl)oxy)phenyl)urea]	+	≥ 75		
O=C(Nc1ccc(Oc2ccnc3[nH]c(=O)cnc23)cc1F)Nc1cc(C2CC2)nn1-c1ccccc1 [(e), 1-(3-cyclopropyl-1-phenyl-1H-pyrazol-5-yl)-3-(2-fluoro-4-((3-oxo-3,4-dihydropyrido[2,3-b]pyrazin-8-yl)oxy)phenyl)urea]	++	25 to 50		
CSc1cc(Oc2ccnc(NC(=O)OCc3ccccc3)c2)ccc1NC(=O)Nc1cc(C(C)(C)C)nn1-c1ccccc1 [(cx), Benzyl (4-(4-(3-(3-(tert-butyl)-1-phenyl-1H-pyrazol-5-yl)ureido)-3-(methylthio)phenoxy)pyridin-2-yl)carbamate]	+	≥ 75		
CC(C)(C)c1cc(NC(=O)Nc2ccc(Oc3ccnc4[nH]c(=O)cnc34)nc2)n(-c2ccccc2)n1 [(t), 1-(3-(tert-butyl)-1-phenyl-1H-pyrazol-5-yl)-3-(6-((3-oxo-3,4-dihydropyrido[2,3-b]pyrazin-8-yl)oxy)pyridin-3-yl)urea]	+	25 to 50		
CSc1cc(Oc2ccnc3[nH]c(=O)cnc23)ccc1NC(=O)Nc1cc(C(C)(C)C)nn1-c1ccc(C)c(C)c1 [(cd), 1-(3-(tert-butyl)-1-(3,4-dimethylphenyl)-1H-pyrazol-5-yl)-3-(2-(methylthio)-4-((3-oxo-3,4-dihydropyrido[2,3-b]pyrazin-8-yl)oxy)phenyl)urea]	++	≥ 75		
CCOC(=O)Nc1cc(Oc2ccc(NC(=O)Nc3cc(C(C)(C)C)no3)c3ccccc23)ccn1 [(db), Ethyl (4-((4-(3-(3-(tert-butyl)isoxazol-5-yl)ureido)naphthalen-1-yl)oxy)pyridin-2-yl)carbamate]	+	≥ 75		
CCSc1cc(Oc2ccnc3[nH]c(=O)cnc23)ccc1NC(=O)Nc1cc(C(C)(C)C)nn1-c1ccccc1 [(am), 1-(3-(tert-butyl)-1-phenyl-1H-pyrazol-5-yl)-3-(2-(ethylthio)-4-((3-oxo-3,4-dihydropyrido[2,3-b]pyrazin-8-yl)oxy)phenyl)urea]	++	≥ 75		
CNC(=O)c1ccc(Oc2ccc(NC(=O)Nc3cc(C(C)(C)C)nn3-c3ccccc3)c(SC)c2)cn1 [(ap), 5-(4-(3-(3-(tert-butyl)-1-phenyl-1H-pyrazol-5-yl)ureido)-3-(methylthio)phenoxy)-N-methylpicolinamide]	++	25 to 50		
CC(C)n1nc(C(C)(C)C)cc1NC(=O)Nc1ccc(Oc2ccnc3[nH]c(=O)cnc23)cc1F [(i), 1-(3-(tert-butyl)-1-isopropyl-1H-pyrazol-5-yl)-3-(2-fluoro-4-((3-oxo-3,4-dihydropyrido[2,3-b]pyrazin-8-yl)oxy)phenyl)urea]	+	50 to 75	dose-dependent increase	dose-dependent increase
CSc1cc(Oc2ccnc(N(CCN(C)C)C(=O)OC(C)(C)C)c2)ccc1NC(=O)Nc1cc(C(C)(C)C)nn1-c1ccccc1 [(ch), Tert-Butyl (4-(4-(3-(3-(tert-butyl)-1-phenyl-1H-pyrazol-5-yl)ureido)-3-(methylthio)phenoxy)pyridin-2-yl)(2-(dimethylamino)ethyl)carbamate]	+	50 to 75		
CSc1cc(Oc2ccncc2)ccc1NC(=O)Nc1cc(C(C)(C)C)nn1-c1ccccc1 [(dk), 1-(3-(tert-butyl)-1-phenyl-1H-pyrazol-5-yl)-3-(2-(methylthio)-4-(pyridin-4-yloxy)phenyl)urea]	++	25 to 50		
